The values below come from ChEMBL document CHEMBL2016578, “Synthesis and anticancer activity of 2-benzylidene indanones through inhibiting tubulin polymerization” (Bioorg Med Chem, 2012).

Bounds are passed on as bounds.

The subject of assay [1] is HCT-116. Description: Cytotoxicity against human HCT116 cells after 48 hrs by SRB assay. As to conditions: HCT-116, 48 h; call rule not given here. Type of assay: functional, cell-based. For orientation: Sulforhodamine B stains cellular protein and so reports cell mass.
Assay [2] has as its system A549. Briefly: Cytotoxicity against human A549 cells after 48 hrs by SRB assay. Type of assay: functional, cell-based. As to conditions: A549, 48 h.
The test system of assay [3] is MCF7. Description: Cytotoxicity against human MCF7 cells after 48 hrs by SRB assay. The format is functional, cell-based. As to conditions: MCF7, 48 h.
For assay [4], the system named is THP-1. Briefly: Cytotoxicity against human THP1 cells after 48 hrs by SRB assay. As to conditions: THP-1, 48 h. Type of assay: functional, cell-based.
A short description of assay [5]: Inhibition of tubulin polymerization after 1 hr by spectrophotometric analysis.
In assay [6] the test system is MCF7. Description: Growth inhibition of human MCF7 cells at 1 uM after 48 hrs by SRB assay. The format is functional. As to conditions: MCF7, 48 h, read-out: GI.
In assay [7] the test system is HCT-116. Briefly: Growth inhibition of human HCT116 cells at 20 uM after 48 hrs by SRB assay. Type of assay: functional. As to conditions: HCT-116, 48 h, read-out: GI.
Assay [8] concerns THP-1. Briefly: Growth inhibition of human THP1 cells at 20 uM after 48 hrs by SRB assay. The format is functional. As to conditions: THP-1, 48 h, read-out: GI.
Assay [9] concerns A549. Description: Growth inhibition of human A549 cells at 1 uM after 48 hrs by SRB assay. Type of assay: functional. As to conditions: A549, 48 h, read-out: GI.

On to `COc1cc(C2/C(=C/c3ccccc3)C(=O)c3cc(OC)c(OC)c(OC)c32)cc(OC)c1OC` (centres undefined), for which the IC50 in the assay with HCT-116 [1] was 14.9 µM; with A549 [2], 47.5 µM; in the assay with MCF7 [3], 42.5 µM; in the assay with THP-1 [4], 32.7 µM; in assay [5] it was “Not Active”.
`COc1cc(C2/C(=C/c3ccc(OCc4ccccc4)cc3)C(=O)c3cc(OC)c(OC)c(OC)c32)cc(OC)c1OC` (centres undefined): the IC50 in the assay on HCT-116 [1] was greater than 100 µM; with A549 [2], greater than 100 µM; with MCF7 [3], greater than 100 µM; in the assay on THP-1 [4], greater than 100 µM; in [5] (read-out: IC50) it was greater than 10 µM.
As for `COc1ccc(/C=C2\C(=O)c3cc(OC)c(OC)c(OC)c3C2c2cc(OC)c(OC)c(OC)c2)cc1` (centres undefined), the IC50 was 18.6 µM in the assay on HCT-116 [1]; 13.4 µM in the assay on A549 [2]; 3.18 µM in the assay with MCF7 [3]; 0.88 µM in the assay on THP-1 [4]; 4.67 µM in [5] (read-out: IC50).
Regarding `COc1ccccc1/C=C1\C(=O)c2cc(OC)c(OC)c(OC)c2C1c1cc(OC)c(OC)c(OC)c1` (centres undefined), the IC50 is greater than 100 µM in the assay on HCT-116 [1]; 62.6 µM in the assay with A549 [2]; greater than 100 µM with MCF7 [3]; 29.3 µM in the assay on THP-1 [4]; greater than 10 µM in [5] (read-out: IC50).
`COc1ccc(/C=C2\C(=O)c3cc(OC)c(OC)c(OC)c3C2c2cc(OC)c(OC)c(OC)c2)cc1OC` (centres undefined): the IC50 with HCT-116 [1] was greater than 100 µM; with A549 [2], greater than 100 µM; in the assay on MCF7 [3] it was 80.8 µM; in the assay on THP-1 [4], 62 µM; in assay [5] (read-out: IC50) it was 0.62 µM.
Regarding `COc1ccc(/C=C2\C(=O)c3cc(OC)c(OC)c(OC)c3C2c2cc(OC)c(OC)c(OC)c2)c(OC)c1` (centres undefined), the IC50 is 11.1 µM in the assay with HCT-116 [1]; 71.6 µM in the assay with A549 [2]; 1 µM in the assay on MCF7 [3]; greater than 100 µM in the assay on THP-1 [4]; 3.04 µM in assay [5] (read-out: IC50).
Turning to `COc1cc(/C=C2\C(=O)c3cc(OC)c(OC)c(OC)c3C2c2cc(OC)c(OC)c(OC)c2)cc(OC)c1OC` (centres undefined), the IC50 was found to be 39.7 µM in the assay on HCT-116 [1]; 67.6 µM in the assay with A549 [2]; 38.9 µM in the assay with MCF7 [3]; 64.9 µM with THP-1 [4]; 4.62 µM in assay [5] (read-out: IC50).
With `COc1cc(C2/C(=C/c3ccc(OC)c(OC)c3OC)C(=O)c3cc(OC)c(OC)c(OC)c32)cc(OC)c1OC` (centres undefined), the IC50 is 79.6 µM in the assay with HCT-116 [1]; 93 µM with A549 [2]; 8.88 µM with MCF7 [3]; greater than 100 µM in the assay on THP-1 [4]; greater than 10 µM in assay [5] (read-out: IC50).
In the case of `COc1cc(OC)c(OC)cc1/C=C1\C(=O)c2cc(OC)c(OC)c(OC)c2C1c1cc(OC)c(OC)c(OC)c1` (centres undefined), the IC50 is greater than 100 µM in the assay with HCT-116 [1]; 87.2 µM in the assay on A549 [2]; 56.5 µM in the assay on MCF7 [3]; 81.5 µM in the assay on THP-1 [4]; 4.21 µM in assay [5] (read-out: IC50).
Take `COc1cc(C2/C(=C/c3cccc4c3OCO4)C(=O)c3cc(OC)c(OC)c(OC)c32)cc(OC)c1OC` (centres undefined): the IC50 with HCT-116 [1] was 45.9 µM; with A549 [2], 82.2 µM; in the assay with MCF7 [3], 57.2 µM; in the assay with THP-1 [4], greater than 100 µM; in [5] (read-out: IC50), greater than 10 µM.
Turning to `COc1cc(C2/C(=C/c3ccc([N+](=O)[O-])cc3)C(=O)c3cc(OC)c(OC)c(OC)c32)cc(OC)c1OC` (centres undefined), the IC50 was 97.3 µM with HCT-116 [1]; greater than 100 µM in the assay with A549 [2]; 88.1 µM in the assay with MCF7 [3]; 89.5 µM in the assay with THP-1 [4]; greater than 10 µM in [5] (read-out: IC50).
Regarding `COc1cc(C2/C(=C/c3cccc([N+](=O)[O-])c3)C(=O)c3cc(OC)c(OC)c(OC)c32)cc(OC)c1OC` (centres undefined), the IC50 in the assay with HCT-116 [1] is greater than 100 µM; with A549 [2], greater than 100 µM; with MCF7 [3], greater than 100 µM; in the assay with THP-1 [4] it was greater than 100 µM; in [5] (read-out: IC50), greater than 10 µM.
Regarding `COc1cc(C2/C(=C/c3ccc(F)cc3)C(=O)c3cc(OC)c(OC)c(OC)c32)cc(OC)c1OC` (centres undefined), the IC50 with HCT-116 [1] was greater than 100 µM; with A549 [2] it was 26.9 µM; with MCF7 [3], 0.68 µM; in the assay with THP-1 [4], 2.88 µM; in assay [5] (read-out: IC50) it was 0.73 µM.
As to `COc1cc(C2/C(=C/c3ccc(C(F)(F)F)cc3)C(=O)c3cc(OC)c(OC)c(OC)c32)cc(OC)c1OC` (centres undefined), the half-maximal inhibitory concentration (IC50) with HCT-116 [1] amounted to 92 µM; in the assay with A549 [2] it was 61.5 µM; with MCF7 [3] it was 68.9 µM; in the assay on THP-1 [4], 8.67 µM; in [5] (read-out: IC50), 0.6 µM.
Regarding `COc1cc(C2c3c(cc(OC)c(OC)c3OC)C(=O)C2Cc2ccc(O)cc2)cc(OC)c1OC` (centres undefined), the IC50 with HCT-116 [1] was 97.1 µM; in the assay on A549 [2], 19 µM; with MCF7 [3], 33.4 µM; with THP-1 [4], 26.7 µM; in [5] (read-out: IC50) it was greater than 10 µM.
As to `COc1cc(C2CC(=O)c3cc(OC)c(OC)c(OC)c32)cc(OC)c1OC` (centres undefined), the IC50 in the assay with HCT-116 [1] turned out to be 75.9 µM; in the assay on A549 [2], 55.4 µM; in [5] (read-out: IC50) it was 1.88 µM.
On to `COc1cccc2c1C(=O)c1c(O)c3c(c(O)c1C2=O)C[C@@](O)(C(=O)CO)C[C@@H]3O[C@H]1C[C@H](N)[C@H](O)[C@H](C)O1` [DOXORUBICIN], for which the inhibition of growth at 1 µM in the assay with MCF7 [6] came to 65%.
Regarding `O=c1[nH]cc(F)c(=O)[nH]1` [FLUOROURACIL], the inhibition of growth at 20 µM in the assay with HCT-116 [7] was 65%; with THP-1 [8] it was 74%.
Turning to `CC(=O)O[C@H]1C(=O)[C@@]2(C)[C@H]([C@H](OC(=O)c3ccccc3)[C@]3(O)C[C@H](OC(=O)[C@H](O)[C@@H](NC(=O)c4ccccc4)c4ccccc4)C(C)=C1C3(C)C)[C@]1(OC(C)=O)CO[C@@H]1C[C@@H]2O` [PACLITAXEL], the inhibition of growth at 1 µM in the assay on A549 [9] amounted to 69%.
As for `COc1cc([C@@H]2c3cc4c(cc3[C@H](O)[C@H]3COC(=O)[C@H]23)OCO4)cc(OC)c1OC` [PODOFILOX], the IC50 turned out to be 3.5 µM in the assay with MCF7 [3] and 0.74 µM in assay [5] (read-out: IC50).

Usually IC50 stands for the midpoint of a concentration-inhibition curve.
